Experimental data: the NIST ThermoML archive (doi:10.1021/acs.jced.9b00704)

Conditions: Liquid, Light diffraction method

CCCCCC(=O)OC [methyl hexanoate]
Conditions | speed of sound [m/s]
297.83 K, 110 kPa | 1225.1
298.17 K, 10000 kPa | 1274.4
298.35 K, 7010 kPa | 1261.9
298.56 K, 5000 kPa | 1252.4
298.76 K, 1010 kPa | 1231.7
298.85 K, 3000 kPa | 1240.3
306.48 K, 110 kPa | 1182.9
308.58 K, 10010 kPa | 1227.8
308.59 K, 1010 kPa | 1186.9
308.9 K, 7000 kPa | 1221.1
309.13 K, 5010 kPa | 1210.5
309.19 K, 3010 kPa | 1197.6
317.52 K, 10010 kPa | 1181
317.6 K, 7010 kPa | 1175.8
317.92 K, 100 kPa | 1137
318.3 K, 1000 kPa | 1142.6
318.41 K, 5010 kPa | 1160.9
319.17 K, 3010 kPa | 1152.2
327.21 K, 110 kPa | 1090.2
327.38 K, 7010 kPa | 1130.2
327.4 K, 10010 kPa | 1143.2
327.58 K, 1010 kPa | 1097.9
327.64 K, 5010 kPa | 1120.6
327.9 K, 3000 kPa | 1107.9
336.91 K, 100 kPa | 1055.2
337.21 K, 5000 kPa | 1091.3
337.21 K, 7010 kPa | 1102.7
337.71 K, 10010 kPa | 1111.9
337.95 K, 1000 kPa | 1065.3
337.97 K, 3000 kPa | 1078
346.56 K, 1010 kPa | 1029.7
346.9 K, 100 kPa | 1021.1
346.92 K, 10020 kPa | 1081.3
347.43 K, 7000 kPa | 1067.3
347.71 K, 3010 kPa | 1040.3
347.75 K, 5010 kPa | 1054.8
356.24 K, 3010 kPa | 1011.9
356.68 K, 10010 kPa | 1048.7
357.28 K, 100 kPa | 970.4
357.33 K, 7010 kPa | 1033.1
357.35 K, 5000 kPa | 1022.1
357.85 K, 1010 kPa | 989.8
366.38 K, 3010 kPa | 970.6
366.68 K, 5000 kPa | 980.4
366.89 K, 10000 kPa | 1005.5
367.18 K, 7000 kPa | 989.6
367.24 K, 1010 kPa | 947.2
367.48 K, 100 kPa | 938.2
377.25 K, 3000 kPa | 927.9
377.7 K, 10000 kPa | 974.3
377.72 K, 5000 kPa | 939.5
377.88 K, 110 kPa | 903.5
377.91 K, 1010 kPa | 910.8
377.97 K, 7000 kPa | 961
386.63 K, 3000 kPa | 894.6
386.85 K, 10000 kPa | 945.8
387.01 K, 1010 kPa | 874.2
387.07 K, 7000 kPa | 922
387.29 K, 5000 kPa | 908.4
387.73 K, 100 kPa | 866.5
396.7 K, 3000 kPa | 862
397.25 K, 10010 kPa | 909.9
397.54 K, 7020 kPa | 891.4
397.64 K, 1010 kPa | 842.1
397.83 K, 5000 kPa | 875.5
398.6 K, 90 kPa | 827.8
406.65 K, 1010 kPa | 810.8
406.78 K, 3010 kPa | 828.8
406.79 K, 7020 kPa | 857.7
406.89 K, 10000 kPa | 885.7
406.99 K, 5010 kPa | 841.7
407.93 K, 100 kPa | 799
416.99 K, 7010 kPa | 835.1
417.08 K, 1010 kPa | 775.9
417.12 K, 3000 kPa | 796.9
417.21 K, 5010 kPa | 808.2
417.21 K, 10020 kPa | 864.4
417.52 K, 110 kPa | 764.3
427.06 K, 1000 kPa | 746
427.25 K, 3000 kPa | 770.6
427.25 K, 5000 kPa | 786.5
427.33 K, 7000 kPa | 805.5
427.38 K, 10010 kPa | 833.5
436.99 K, 1010 kPa | 714.9
437.07 K, 5000 kPa | 751.6
437.97 K, 6990 kPa | 771.5
438.1 K, 9980 kPa | 802.1
439.3 K, 3000 kPa | 727.5
446.68 K, 3010 kPa | 706.2
447 K, 4990 kPa | 723
447.21 K, 10010 kPa | 776
447.38 K, 7000 kPa | 744.5
447.88 K, 1000 kPa | 672.6
456.61 K, 3000 kPa | 673.8
456.81 K, 9990 kPa | 747
456.84 K, 5000 kPa | 695.3
457.1 K, 7010 kPa | 715.1
457.84 K, 990 kPa | 642.8
466.22 K, 3010 kPa | 642.9
466.28 K, 5000 kPa | 663.1
466.3 K, 7000 kPa | 689.7
466.3 K, 10010 kPa | 720.4
466.46 K, 1010 kPa | 613.5
478.01 K, 1010 kPa | 570.1
478.28 K, 7000 kPa | 646.3
478.28 K, 10000 kPa | 677.8
478.34 K, 5010 kPa | 623.4
478.43 K, 3010 kPa | 596.3
487.58 K, 1000 kPa | 535.4
487.67 K, 3010 kPa | 565.4
487.67 K, 5000 kPa | 595
487.69 K, 7000 kPa | 617
487.71 K, 10000 kPa | 653.5
497.17 K, 1010 kPa | 499.6
497.36 K, 5000 kPa | 568.5
497.38 K, 7000 kPa | 591.6
497.43 K, 3010 kPa | 534.1
497.44 K, 10000 kPa | 629.4
506.49 K, 3000 kPa | 503.9
506.88 K, 1000 kPa | 464.6
506.97 K, 7010 kPa | 563.3
507.02 K, 10020 kPa | 599.2
507.11 K, 5010 kPa | 535.1
516.99 K, 1010 kPa | 426.2
517.52 K, 7010 kPa | 531.6
517.56 K, 3000 kPa | 468.7
517.6 K, 5010 kPa | 504.9
517.63 K, 10010 kPa | 571
528.29 K, 5000 kPa | 472.6
528.46 K, 7000 kPa | 504
528.65 K, 10010 kPa | 547.3
529.52 K, 3000 kPa | 426
538.04 K, 3000 kPa | 396.8
538.26 K, 5010 kPa | 439.9
538.26 K, 7000 kPa | 472.1
538.35 K, 10000 kPa | 516.1
547.56 K, 3000 kPa | 362.7
547.96 K, 5000 kPa | 406.1
548.18 K, 9980 kPa | 498.8
548.26 K, 7000 kPa | 446
557.68 K, 3000 kPa | 321.9
557.89 K, 7010 kPa | 423
558.07 K, 10000 kPa | 472.6
558.34 K, 5000 kPa | 378.3
565.69 K, 10010 kPa | 446.4
566.56 K, 3010 kPa | 285.3
567.58 K, 5000 kPa | 346.5
567.72 K, 7010 kPa | 390.1
575.39 K, 5000 kPa | 317.9
576.35 K, 7000 kPa | 365.2
576.45 K, 3010 kPa | 241
577.04 K, 10010 kPa | 420.8
586.48 K, 3000 kPa | 197.5
586.99 K, 5010 kPa | 275
587.76 K, 7000 kPa | 334.6
588.07 K, 10030 kPa | 393.2
